According to US20180171411A1, “GFRalpha1 AS A BIOMARKER FOR CISPLATIN-INDUCED CHEMORESISTANCE AND METASTASIS” (THE BOARD OF REGENTS OF THE UNIVERSITY OF TEXAS SYSTEM, priority 2015, published 2018):

Experiments:
Format in all cases: cell-based, human
[1] = test system: GFRα1-deficient MG-63 and U-2 OS cells; assay: WST-1 cell viability of GFRα1-deficient (siRNA) osteosarcoma cells; settings: GFRα1 siRNA 48 h, then agent 24 h
Method: FIG. 6. Cell viability of GFRα1-deficient osteosarcoma cells after treatment of chemotherapeutic agents. MG-63 and U-2 OS cells were transfected with either control siRNA or GFRα1 siRNA for 48 h and then treated with different concentrations of doxorubicin, cisplatin, or methotrexate for 24 h. Cell viability was measured using the WST-1 assay. The values are represented as a mean±s.d.m. (n=3). ** denotes P<0.05 by t-test. (a) MG-63 cells. (b) U-2 OS cells.
Small interfering RNA (siRNA)-based Experiments. Human GFRα1 siRNA, Beclin 1 siRNA, HMGB1 siRNA, AMPK siRNA, c-Src siRNA, NFκB p50 siRNA, APE siRNA and Negative (control) siRNA were purchased from Santa Cruz Biotechnology. Cell lines were transiently transfected with siRNA duplexes using Lipofectamine® RNAiMAX (Life Technologies) according to manufacturer's instructions.
Cell viability assays. WST-1 cell viability assay reagent was purchased from Roche. Equal numbers of cells were seeded in triplicate wells in 48-well plates and maintained in growth medium containing 10% FBS). Cells were cultured with PBS, GDNF (50 ng/mL), GDNF (50 ng/ml)+cisplatin (20 μM), or cisplatin (20 μM) in the presence of serum for 24 hr. Cells were also preincubated with inhibitors (3-MA, PP1, Compound C, Baf and CQ) for 1 hr before stimulating with PBS, GDNF, GDNF+cisplatin, or cisplatin. WST-1 reagent was then treated to the cells at the indicated times and incubated for 2 hr at 37° C. Cell viability was determined by measuring the absorbance after adding WST-1. The spectrophotometric absorbance of the samples was measured using an Ultra Multifunctional Microplate Reader (Tecan, Durham, N.C.) at 450 nm. Experiments were done at least in triplicate using separate cultures.

[2] = test system: Src/AMPK signaling in MG-63 cells; assay: Immunoblot of Src/AMPK/mTOR signaling; settings: cisplatin 20 μM, 24 hr
Method: FIG. 4. GFRα1 regulates autophagy by Src/AMPK signaling in osteosarcoma cells. (a-b) Immunoblot analysis of osteosarcoma cell lysates with antibodies specific for GFRα1, p-Src, Src, p-AMPK, AMPK, p-mTOR, mTOR, p-p70 S6Kinase, Beclin 1, HMGB1, LC3, and β-actin. (a) MG-63 and cells were treated with cisplatin (20 μM) for 24 hr. (b) Control and GFRα1-deficient MG-63 cells were treated with cisplatin (20 μM) for 24 hr. (c-e) Immunoblot analysis of osteosarcoma cell lysates with antibodies specific for GFRα1, p-Src, Src, p-AMPK, AMPK, LC3, and β-actin. (c) Control and Src-deficient MG-63 cells were treated with cisplatin (20 μM) for 24 hr. (d) MG-63 cells were cultured in the presence or absence of PP1 (5 μM) and then treated with cisplatin (20 μM) for 24 hr. (e) MG-63 cells were cultured in the presence or absence of Compound C and then treated with cisplatin (20 μM) for 24 hr. (f) Cell viability of MG-63 cells after cisplatin treatment in the presence of PP1. MG-63 cells were cultured with DMSO or PP1 (2, 5 μM) and then treated with cisplatin (20 μM) for 24 hr. Cell viability was measured using the WST-1 assay. The values are represented as a mean±s.d.m. (n=3). ** denotes p<0.05 by t-test. (g) Cell viability of MG-63 cells after cisplatin treatment in the presence of Compound C. MG-63 cells were cultured with DMSO or Compound C (5, 10 μM) and then treated with cisplatin (20 μM) for 24 hr. Cell viability was measured using the WST-1 assay. The values are represented as a mean±s.d.m. (n=3). ** denotes p<0.05 by t-test.
Immunoblotting. Cells were washed with PBS and lysed in RIPA Buffer (Pierce, Rockford, Ill.). The protein content was determined using a dye-binding microassay (Bio-Rad, Hercules, Calif.), and 10-50 μg protein per lane was electrophoresed on 4-12% SDS polyacrylamide gels. Proteins were blotted onto Hybond ECL membranes (Amersham Pharmacia Biotech, Piscataway, N.J.). Two protein ladders were used for molecular weight determination (GenDEPOT, Barker, Tex.). The blotted proteins were detected using an enhanced chemiluminescence detection system (iNtRON, Seoul, Korea). Data were quantified and analyzed with Image-J software.

MG-63 cells = assay: WST-1 cell viability of MG-63 cells; settings: GDNF 50 ng/ml, 24 h
Method: FIG. 4. GFRα1 regulates autophagy by Src/AMPK signaling in osteosarcoma cells. (a-b) Immunoblot analysis of osteosarcoma cell lysates with antibodies specific for GFRα1, p-Src, Src, p-AMPK, AMPK, p-mTOR, mTOR, p-p70 S6Kinase, Beclin 1, HMGB1, LC3, and β-actin. (a) MG-63 and cells were treated with cisplatin (20 μM) for 24 hr. (b) Control and GFRα1-deficient MG-63 cells were treated with cisplatin (20 μM) for 24 hr. (c-e) Immunoblot analysis of osteosarcoma cell lysates with antibodies specific for GFRα1, p-Src, Src, p-AMPK, AMPK, LC3, and β-actin. (c) Control and Src-deficient MG-63 cells were treated with cisplatin (20 μM) for 24 hr. […] Cell viability was measured using the WST-1 assay. […] Cell viability was measured using the WST-1 assay. […]
FIG. 7. […] (a) Quantitative real-time PCR of GDNF mRNA expression after cisplatin treatment. […] (b-d) Cell viability was measured using the WST-1 assay. […] (f) Quantitative analysis of the number of yellow puncta and the number of RFP-LC3 puncta in the combined images of Control and GFRα1-overexpressing MG-63 cells treated with GDNF. […]
Cell viability assays. […] Cell viability was determined by measuring the absorbance after adding WST-1. The spectrophotometric absorbance of the samples was measured using an Ultra Multifunctional Microplate Reader (Tecan, Durham, N.C.) at 450 nm. […]

Q: How did the “cell proliferation of GFRα1-deficient cells compared to control cells” value [1] turn out when `N.N.[Cl][Pt][Cl]` [cisplatin, Cis-Diamineplatinum(II) dichloride] was run?
A: significantly reduced

Q: What about the “level of phosphorylated AMPK” value [2] of the same molecule?
A: increased

Q: What about the “level of phosphorylated S6K (P70-S6Kinase)” value [2] of the same molecule?
A: decreased

Q: What about the “level of phosphorylated Src” value [2] of the same molecule?
A: increased

Q: What about the “level of phosphorylated mTOR” value [2] of the same molecule?
A: decreased

B1: GDNF: glial cell line-derived neurotrophic factor, the major ligand of GFRα1 (protein, UniProt P39905 78-211, looked up)
Glial cell line-derived …: SPDKQMAVLPRRERNRQAAAANPENSRGKGRRGQRGKNRGCVLTAIHLNVTDLGLGYETKEELIFRYCSGSCDAAETTYDKILKNLSRNRRLVSDKVGQACCRPIAFDDDLSFLDDNLVYHILRKHSAKRCGCI
Q: For B1, which “cell proliferation of MG-63 cells” value (MG-63 cells) is on record?
A: no effect
